# Measured values taken from patent US20070043114A1, “Nerve regeneration promoters” (priority 2003, published 2007).
# Assays:
# [1] = test system: sciatic nerve; details: mature rat, axon of sciatic nerve cut; Brain Research 975, 229-236 (2003); cited from earlier work
# [2] = test system: astrocytes derived from cerebral cortex of rats; assay: differentiation test of astrocytes derived from cerebral cortex of rats; type: cell-based, rats of Wistar strain; details: for positive cell numbers per visual field stained by an anti-βIII-tubulin antibody: differentiated seven days, no compound-added group 93±10.9
# Description: Cerebrum was excised from newly-born rats of Wistar strain and, after removal of meninx under a stereoscopic microscope, it was ground with a frost part of a slide glass with frost in an ice-cooled DMEM medium to prepare a suspension. Centrifugal separation was conducted at 100×g for 3 minutes and the precipitate was suspended in a 10% bovine fetal serum-DMEM medium and sown in a 75-cm^2 flask. After two days from the start of culturing, cell purification was conducted. On the 19th day from the start of the culturing, astrocytes were recovered using 0.05% trypsin/EDTA and the cells were suspended again using a differentiation medium (a DMEM/F12 medium (Gibco) containing N2 additive (N2 Plus Supplement; R&D Systems) and 1% fetal bovine serum (manufactured by Dainippon Pharmaceutical). That was sown on a chamber slide and, on the next day, the culturing solution was exchanged to a differentiated medium (a DMEM/F12 medium comprising N2 additive, antibiotic and 1% fetal bovine serum) containing a test compound. After differentiating for seven days, fixation was conducted using 4% paraformaldehyde and the following immunostaining was conducted. With regard to nerve cells prepared by differentiation of astrocytes derived from cerebral cortex of rats, their differentiation stage was confirmed by means of immunostaining. Incidentally, anti-βIII-tubulin antibody and anti-doublecortin antibody were used for confirmation of young nerve cells; anti-MAP2 antibody, anti-NeuN antibody and anti-NSE antibody were used for confirmation of mature nerve cells; and anti-GABA antibody was used for confirmation of functional nerve cells.
# [3] = test system: nerve stem cells derived from striatum of a rat; assay: differentiation test of stem cells derived from fetal brain of rats; type: cell-based, rat of Wistar strain; details: 30 μmol/L
# Description: Fetus was taken out from a pregnant rat of Wistar strain and striatum was excised from brain of the fetus. Cells were dispersed by means of pipetting and incubated for six to seven days in a growth medium (a DMEM/F12 medium (manufactured by Gibco) containing N2 additive (N2 Plus Supplement; R&D Systems), antibiotics, basic fibroblast growth factor (20 ng/mL bFGF; manufactured by R&D Systems) and epithelial cell growth factor (20 ng/mL EGF; manufactured by R&D Systems). The resulting neurospheres were recovered, cells were dispersed by means of pipetting and culturing was conducted for six to seven days more using a growth medium. Neurospheres which were produced again were recovered and, after cells were dispersed, they were cultured on a chamber slide subjected to a poly-L-ornithine coating. After incubating for 24 hours, exchange to a differentiated medium comprising a test compound (a DMEM/F12 medium comprising N2 additive, antibiotic and 1% fetal bovine serum) was conducted. After differentiating for seven days, fixation was conducted with 4% paraformaldehyde and a immunostaining was conducted using a mouse anti-βIII-tubulin antibody (second antibody: FITC-labeled anti-mouse IgG antibody) which is to be an index for differentiation from nerve stem cells to nerve cells).
# For example, when 30 μmol/L of (2R)-2-propyloctanoic acid was used, the cell numbers in the no compound-added group were 8±1.3 (in eight visual fields) while those in the group to which the compound was added were 31±4.6 (in eight visual fields).
# With regard to the above nerve cells prepared by differentiation of nerve stem cells derived from striatum of rats, their differentiation stage was confirmed by means of immunostaining. Incidentally, for the confirmation of mature nerve cells, anti-MAP2 antibody was used while, for the confirmation of functional nerve cells, anti-GABA antibody was used.
# [4] = dog, in vivo, 100 mg/kg
# Description: Toxicity of the compound of the present invention is sufficiently low and has been confirmed to be sufficiently safe for using as a medicament.
# [5] = test system: four-vein ligated (4VO) rat model; assay: 4VO rat model: BrdU and NeuN double immunostaining, hippocampus CA1 region; type: in vivo, rat of Wistar strain; details: 4VO rats, 10 mg/kg oral once daily for 40 days from 8th day after 4VO, n=13
# Description: (§1) A four-vein ligated (4VO) rat model was prepared by a partially modified method by Prusinery, et al. (J. Cereb. Blood Flow Metab., 16, 973-980 […]). Thus, vertebral arteries on both sides of male rat of Wistar strain were permanently obstructed and, on the next day, whole carotid artery was exposed and was temporally obstructed for 10 minutes using a clip. Rats where no response was noted immediately after obstruction of whole carotid arteries on both sides and forward-facing response disappeared were used for the experiment.
# Evaluation of nerve cell regeneration was conducted by preparing brain tissue sample by Nissl staining and counting nerve cell numbers in right and left hippocampus CA1 regions.
# Confirmation of the fact that […] nerve cells increased in Example 1-A-2-1 were regenerated nerve cells was conducted by preparing a brain tissue sample immunostained with BrdU and NeuN and counting nerve cell numbers which were positive to double staining in right and left hippocampus CA1 region. […] Nerve cell numbers which were positive to double staining were calculated as number per unit length (mm) using nerve cell layer length of the hippocampus CA1 region and nerve cell numbers which were positive to double staining.
# [6] = test system: four-vein ligated (4VO) rat model; assay: 4VO rat model: water maze learning test; type: in vivo, rat of Wistar strain; details: 4VO rats; for successful times compared with the control group (χ2 test): fourth session, p<0.05
# Description: as §1
# A four-vein ligated (4VO) rat model was prepared according to a method mentioned in Example 1-A-1 and subjected to the following test.
# In the water maze learning test, a black circular pool (manufactured by Neuroscience) of 150 cm diameter and 50 cm height was used. The pool was filled with tap water of about 23° C. to a height of about 30 cm (platform surface was about 1 cm beneath the water surface). The platform (made of colorless and transparent acrylate; circular shape having 10 cm diameter) which was to be a goal was placed in a distance of about 35 cm from the inner wall of the pool. During the test period, positions of things which were hints for recognition of space such as racks, illumination instruments and persons who conducted the experiments were made constant and illumination level was made constant as well.
# Rats on the third day after completion of repetitive administrations were allowed to stand at a starting position and the time until they climbed up to the platform (escape latency (seconds)) was measured. Maximum swimming time for climbing up to the platform was made 90 seconds and, when a rat climbed up to the plant form, it was allowed to stand there for about 30 seconds and then returned to a cage. When a rat was unable to climb up to the platform within a measuring time of 90 seconds, the rat was taken out from water, transferred onto the platform, allowed to stand there for about 30 seconds and returned to the cage. Incidentally, the escape latency at that time was counted as 90 seconds. Interval between trials was made about 30 minutes, four trials were conducted a day and they were defined as one session. Such a session was conducted for continued four days and (1) escape latency and (2) successful times (times of being able to reach the platform during four trials) were evaluated.
# [7] = test system: four-vein ligated (4VO) rat model; assay: 4VO rat model: histological observation (Nissl-stained specimen), hippocampus CA1 nerve cell numbers; type: in vivo, rat of Wistar strain; details: 4VO rats, 1 mg/kg oral
# Description: as §1
# A four-vein ligated (4VO) rat model was prepared according to a method mentioned in Example 1-A-1 and subjected to the following test. […]
# With regard to the specimens for histopathological test, three kinds of specimens, i.e. (1) Nissl-stained specimen (a site of 5.7 mm from interaural line), (2) specimen stained with hematoxylin-eosin and (3) unstained specimen (thickness: 10 μm) were prepared for brain tissue sample from one animal. Among them, with regard to the Nissl-stained specimen, right and left hippocampus CA1 nerve cell layer lengths and nerve cell numbers were measured by using Image Analyzer (MCID Elite 7.0 Rev.1.0) and numbers per unit length (mm) were calculated to conduct a histological evaluation.
structure (smiles),measurement,setting,value
CCCC(CCC)C(=O)O [2-propylpentanoic acid],axon elongation and recovery of kinetic function,[1],the axon is elongated and kinetic function is recovered
same,positive cell numbers per visual field stained by an anti-βIII-tubulin antibody,[2]; 300 μmol/L,174.8±7.8
CCCCCC[C@@H](CCC)C(=O)O [(2R)-2-propyloctanoic acid],βIII-tubulin-positive (Tuj1+) cell numbers per visual field,"[3]; differentiated seven days, eight visual fields, 100 magnifications, no compound-added group 8±1.3",31±4.6
same,positive cell numbers per visual field stained using an anti-GABA antibody,[3]; no compound-added group 19±2.7,101±9.5
same,positive cell numbers per visual field stained using an anti-MAP2 antibody,[3]; no compound-added group 34±0.9,50±7.4
same,dead cases,[4],no dead case was noted
same,"cells positive to double staining (anti-BrdU and anti-NeuN) per mm, hippocampus CA1 region",[5],5.7±1.2 cells/mm
same,positive cell numbers per visual field stained by an anti-βIII-tubulin antibody,[2]; 30 μmol/L,177±11.8
same,positive cell numbers stained by an anti-GABA antibody,"[2]; 30 μmol/L, no compound-added group 20±1.0",60±8.8
same,positive cell numbers stained by an anti-MAP2 antibody,"[2]; 30 μmol/L, no compound-added group 50±7.4",104±10.3
same,positive cell numbers stained by an anti-doublecortin antibody,"[2]; 30 μmol/L, no compound-added group 55±5.7",168±16.6
same,positive cell numbers stained by an anti-NeuN antibody,"[2]; 30 μmol/L, no compound-added group 106",199
same,positive cell numbers stained by an anti-NSE antibody,"[2]; 30 μmol/L, no compound-added group 108",166
same,positive cell numbers per visual field stained by an anti-βIII-tubulin antibody,[2]; 100 μmol/L,230±11.0
same,Escape latency,"[6]; 1 mg/kg oral, session 1",68.2 ± 3.5 s
same,Escape latency,"[6]; 1 mg/kg oral, session 2",61.8 ± 4.4 s
same,Escape latency,"[6]; 1 mg/kg oral, session 3",52.5 ± 6.9 s
same,Escape latency,"[6]; 1 mg/kg oral, session 4",46.9 ± 7.6 s
same,successful times compared with the control group (χ2 test),[6]; 3 mg/kg oral,significant difference
same,Escape latency,"[6]; 3 mg/kg oral, session 1",63.2 ± 3.8 s
same,Escape latency,"[6]; 3 mg/kg oral, session 2",48.7 ± 5.5 s
same,Escape latency,"[6]; 3 mg/kg oral, session 3",42.8 ± 6.4 s
same,successful times compared with the control group (χ2 test),[6]; 10 mg/kg oral,significant difference
same,Escape latency,"[6]; 10 mg/kg oral, session 1",66.8 ± 3.7 s
same,Escape latency,"[6]; 10 mg/kg oral, session 2",44.5 ± 4.5 s
same,Escape latency,"[6]; 10 mg/kg oral, session 3",41.4 ± 5.2 s
same,"Nerve cell density, hippocampus CA1 region",[7],45.0 ± 5.6 cells/mm
